Test results from patent US20250152585A1, “PHARMACEUTICAL COMPOUND” (Duke Street Bio Limited, priority 2022, published 2025).
Like-named read-outs stand apart in the source and are kept apart here.

Columns and labels:
[1] = biological target: T1, N-terminally FLAG-tagged PARP2 (amino acids 1-583) (Homo sapiens, UniProt Q9UGN5); experiment: PARP2 probe displacement HTRF assay; assay type: binding; conditions: binned Kd
T1 construct: N-terminally FLAG-tagged PARP2 (amino acids 1-583)
Experimental: Data analysis was performed identical as for PARP1.

PARP1 = biological target: T2, PARP1 (Homo sapiens, UniProt P09874); experiment: NanoBRET cellular target occupancy assay, PARP1; assay type: cell-based; conditions: for Kd: HEK293 cells transiently transfected with PARP1-NanoLuc fusion, tracer 11 nM, 2 hours at 37° C., Kd by Cheng-Prussoff; for Selectivity: NanoBRET, PARP1 over PARP2, Kd (PARP2)/Kd (PARP1)
T2 construct: host or cells: HEK293
T2 sequence (P09874 whole entry, the tested form may be a part): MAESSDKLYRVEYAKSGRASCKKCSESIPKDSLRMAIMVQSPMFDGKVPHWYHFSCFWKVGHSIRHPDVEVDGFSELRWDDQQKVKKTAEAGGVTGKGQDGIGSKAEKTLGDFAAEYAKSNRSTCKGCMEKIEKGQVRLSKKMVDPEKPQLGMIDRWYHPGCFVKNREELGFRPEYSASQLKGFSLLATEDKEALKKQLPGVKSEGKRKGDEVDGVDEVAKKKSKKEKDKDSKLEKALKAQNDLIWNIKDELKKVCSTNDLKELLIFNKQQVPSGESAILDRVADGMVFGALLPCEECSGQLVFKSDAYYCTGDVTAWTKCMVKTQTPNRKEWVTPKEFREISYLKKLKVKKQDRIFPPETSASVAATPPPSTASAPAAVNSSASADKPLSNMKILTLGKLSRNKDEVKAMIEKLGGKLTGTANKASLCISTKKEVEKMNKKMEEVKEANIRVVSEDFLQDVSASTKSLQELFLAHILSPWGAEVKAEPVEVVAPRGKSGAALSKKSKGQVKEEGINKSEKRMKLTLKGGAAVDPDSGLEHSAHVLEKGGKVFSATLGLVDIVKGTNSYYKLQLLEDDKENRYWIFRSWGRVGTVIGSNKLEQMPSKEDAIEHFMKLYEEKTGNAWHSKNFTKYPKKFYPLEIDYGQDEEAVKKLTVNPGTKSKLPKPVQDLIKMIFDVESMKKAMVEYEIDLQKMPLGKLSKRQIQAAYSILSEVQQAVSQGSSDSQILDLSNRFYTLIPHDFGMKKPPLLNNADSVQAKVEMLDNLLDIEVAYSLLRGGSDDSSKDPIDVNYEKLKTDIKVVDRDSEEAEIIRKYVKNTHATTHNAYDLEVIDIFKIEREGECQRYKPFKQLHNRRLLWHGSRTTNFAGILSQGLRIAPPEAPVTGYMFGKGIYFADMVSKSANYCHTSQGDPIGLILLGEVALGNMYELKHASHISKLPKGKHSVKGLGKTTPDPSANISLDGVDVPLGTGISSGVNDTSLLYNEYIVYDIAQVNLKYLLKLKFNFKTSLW

PARP2 = biological target: T3, PARP2 (Homo sapiens, UniProt Q9UGN5); experiment: NanoBRET cellular target occupancy assay, PARP2; assay type: cell-based; conditions: HEK293 cells transiently transfected with PARP2-NanoLuc fusion; tracer 2 nM; 2 hours at 37° C.; Kd by Cheng-Prussoff
T3 construct: host or cells: HEK293
T3 sequence (Q9UGN5 whole entry, the tested form may be a part): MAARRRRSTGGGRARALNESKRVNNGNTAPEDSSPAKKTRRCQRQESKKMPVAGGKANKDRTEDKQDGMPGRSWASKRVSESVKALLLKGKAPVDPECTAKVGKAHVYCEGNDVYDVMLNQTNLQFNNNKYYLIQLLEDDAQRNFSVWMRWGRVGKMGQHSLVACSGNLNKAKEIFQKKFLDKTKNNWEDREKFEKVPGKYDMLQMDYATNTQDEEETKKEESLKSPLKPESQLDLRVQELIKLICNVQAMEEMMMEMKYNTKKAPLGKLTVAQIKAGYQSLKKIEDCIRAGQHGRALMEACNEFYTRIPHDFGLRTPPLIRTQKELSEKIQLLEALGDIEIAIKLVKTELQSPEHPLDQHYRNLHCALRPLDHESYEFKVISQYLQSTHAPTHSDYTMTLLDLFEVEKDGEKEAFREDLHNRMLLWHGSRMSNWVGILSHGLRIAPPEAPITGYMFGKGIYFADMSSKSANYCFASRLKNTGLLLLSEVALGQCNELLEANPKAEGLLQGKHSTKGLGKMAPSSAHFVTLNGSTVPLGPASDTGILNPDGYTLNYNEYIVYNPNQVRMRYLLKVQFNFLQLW
Description: NanoBRET Cellular Target Occupancy Assay

[2] = biological target: T4, full length N-terminally FLAG-tagged PARP1 (Homo sapiens, UniProt P09874); experiment: PARP1 probe displacement HTRF assay; conditions: for Kd: binned Kd; for Selectivity: PARP1 over PARP2, ratio Kd (PARP2)/Kd (PARP1)
T4 sequence (P09874 whole entry): as the sequence (P09874 whole entry, the tested form may be a part) above

[3] = biological target: T4, full length N-terminally FLAG-tagged PARP1; experiment: PARP1 biochemical DELFIA assay (auto-PARylation); set-up: recombinant full length human N-terminally FLAG-tagged PARP1
[4] = PARP1 HTRF, PARP1 probe displacement HTRF
[5] = binned IC50, PARP1 biochemical DELFIA assay
[6] = read-out: PARP1 HTRF, PARP1 probe displacement HTRF
[7] = read-out: PARP1 HTRF, probe displacement HTRF
[8] = binned IC50, biochemical auto-PARylation assay
[9] = PARP1 HTRF, probe displacement HTRF

T1 sequence (Q9UGN5 whole entry, the tested form may be a part): as the sequence (Q9UGN5 whole entry, the tested form may be a part) above

| SMILES | Kd ([1]; PARP2 probe displacement HTRF) | Kd (PARP1) | Kd (PARP2) | Kd [2, 4] | IC50 [3, 5] | Kd [2, 6] | Kd ([1]; probe displacement HTRF) | Kd [2, 7] | IC50 [3, 8] | Kd [2, 9] | Selectivity (PARP1) | Selectivity ([2]; probe displacement HTRF) |
| --- | --- | --- | --- | --- | --- | --- | --- | --- | --- | --- | --- | --- |
| CNC(=O)c1ccc(N2CCC(N3CCC(c4cc5ccc(F)cc5c(=O)[nH]4)C3)CC2)c(F)n1 (single isomer, unassigned) [Compound 174b] | 10 to 100 nM | < 10 nM | 100 to 1000 nM | – | < 10 nM | < 10 nM | – | – | – | – | +++ (+++ indicate a value of at least 100) | +++ (+++ indicate a value of at least 100) |
| CNC(=O)c1ccc(N2CCC(N3CCC(c4cc5ccc(F)cc5c(=O)[nH]4)C3)CC2)c(F)n1 (racemic) [Compound 174rac] | 100 to 1000 nM | < 10 nM | 1000 to 10000 nM | – | < 10 nM | < 10 nM | – | – | – | – | +++ (+++ indicate a value of at least 100) | +++ (+++ indicate a value of at least 100) |
| CNC(=O)c1ccc(N2CCC(N3CCC(c4cc5c(F)ccc(F)c5c(=O)[nH]4)C3)CC2)c(F)n1 (single isomer, unassigned) [Compound 323a] | – | < 10 nM | > 10000 nM | – | – | – | > 10000 nM | < 10 nM | < 10 nM | – | +++ (+++ indicate a value of at least 100) | +++ (+++ indicate a value of at least 100) |
| CCc1ccc(C2CCN(C3CCN(c4ccc(C(=O)NCC(F)F)nc4)CC3)C2)[nH]c1=O (single isomer, unassigned) [Compound 354b] | – | < 10 nM | 100 to 1000 nM | – | – | – | 100 to 1000 nM | < 10 nM | < 10 nM | – | +++ (+++ indicate a value of at least 100) | +++ (+++ indicate a value of at least 100) |
| CNC(=O)c1ccc(N2CCC(N3CCC(c4cc5c(F)cncc5c(=O)[nH]4)C3)CC2)c(F)n1 (single isomer, unassigned) [Compound 343a, 6-fluoro-5-(4-(3-(5-fluoro-1-oxo-1,2-dihydro-2,7-naphthyridin-3-yl)pyrrolidin-1-yl)piperidin-1-yl)-N-methylpicolinamide] | – | – | 1000 to 10000 nM | – | – | – | 100 to 1000 nM | – | – | – | – | – |
| CNC(=O)c1cc(C)c(N2CCC(N3CCC(c4nc5ccccc5c(=O)[nH]4)C3)CC2)c(C)n1 (single isomer, unassigned) [Compound 224b] | – | – | – | – | – | – | 1000 to 10000 nM | 100 to 1000 nM | 100 to 1000 nM | – | – | − (− indicates a value of less than 10) |
| CNC(=O)c1ccc(N2CCC(N3CCC(c4nc5ccccc5c(=O)[nH]4)C3)CC2)cn1 (single isomer, unassigned) [Compound 10a, N-methyl-5-(4-(3-(4-oxo-3,4-dihydroquinazolin-2-yl)pyrrolidin-1-yl)piperidin-1-yl)picolinamide] | 100 to 1000 nM | – | – | < 10 nM | 10 to 100 nM | – | – | – | – | – | – | +++ (+++ indicate a value of at least 100) |
| N#Cc1ccc(N2CCC(N3CCC(c4nc5ccccc5c(=O)[nH]4)C3)CC2)nc1 (single isomer, unassigned) [Compound 55a] | 1000 to 10000 nM | – | – | – | < 10 nM | < 10 nM | – | – | – | – | – | +++ (+++ indicate a value of at least 100) |
| CNC(=O)c1ccc(N2CCC(N3CCC(c4cc5c(F)cncc5c(=O)[nH]4)C3)CC2)cn1 (single isomer, unassigned) [Compound 331b] | – | – | – | – | – | – | 1000 to 10000 nM | 10 to 100 nM | 10 to 100 nM | – | – | +++ (+++ indicate a value of at least 100) |
| CNC(=O)c1ccc(N2CCC(N3CCCC(c4ccc(C5CC5)c(=O)[nH]4)C3)CC2)cn1 (single isomer, unassigned) [Compound 126b] | > 10000 nM | – | – | – | 100 to 1000 nM | 100 to 1000 nM | – | – | – | – | – | + (+ indicates a value of 10 to less than 50) |
| CNC(=O)c1ccc(OCCN2CCCC(Cc3nc4ccccc4c(=O)[nH]3)C2)cn1 (single isomer, unassigned) [Compound 14b, N-methyl-5-(2-(3-((4-oxo-3,4-dihydroquinazolin-2-yl)methyl)piperidin-1-yl)ethoxy)picolinamide] | > 10000 nM | – | – | 10 to 100 nM | 10 to 100 nM | – | – | – | – | – | – | +++ (+++ indicate a value of at least 100) |
| CNC(=O)c1ccc(N2CCC(N3CC4(c5nc6c(c(=O)[nH]5)CCCN6C)CC3C4)CC2)c(F)n1 [Compound 375, 6-fluoro-N-methyl-5-(4-(4-(8-methyl-4-oxo-3,4,5,6,7,8-hexahydropyrido[2,3-d]pyrimidin-2-yl)-2-azabicyclo[2.1.1]hexan-2-yl)piperidin-1-yl)picolinamide] | – | – | – | – | – | – | 100 to 1000 nM | – | < 10 nM | < 10 nM | – | + (+ indicates a value of 10 to less than 50) |
| CNC(=O)c1cc(C)c(N2CCC(N3CCC(c4cc5ccc(F)cc5c(=O)[nH]4)C3)CC2)cn1 (single isomer, unassigned) [Compound 202b] | 10 to 100 nM | – | – | – | < 10 nM | < 10 nM | – | – | – | – | – | + (+ indicates a value of 10 to less than 50) |

More lines, main results first:

| Kd ([1]; PARP2 probe displacement HTRF) | Kd (PARP1) | Kd (PARP2) | Kd [2, 4] | IC50 [3, 5] | Kd [2, 6] | Kd ([1]; probe displacement HTRF) | Kd [2, 7] | IC50 [3, 8] | Kd [2, 9] | SMILES | Selectivity (PARP1) | Selectivity ([2]; probe displacement HTRF) |
| --- | --- | --- | --- | --- | --- | --- | --- | --- | --- | --- | --- | --- |
| 100 to 1000 nM | < 10 nM | > 10000 nM | < 10 nM | < 10 nM | – | – | – | – | – | CCc1ccc(C2CCN(C3CCN(c4ccc(C(=O)NC)nc4F)CC3)C2)[nH]c1=O (single isomer, unassigned) [Compound 151a, 5-(4-(3-(5-ethyl-6-oxo-1,6-dihydropyridin-2-yl)pyrrolidin-1-yl)piperidin-1-yl)-6-fluoro-N-methylpicolinamide] | +++ (+++ indicate a value of at least 100) | +++ (+++ indicate a value of at least 100) |
| – | < 10 nM | 1000 to 10000 nM | – | – | – | 100 to 1000 nM | – | < 10 nM | < 10 nM | CNC(=O)c1ccc(N2CCC(N3CCC(c4cc5ncc(F)cc5c(=O)[nH]4)C3)CC2)c(F)n1 (racemic) [Compound 324rac, 6-fluoro-5-(4-(3-(3-fluoro-5-oxo-5,6-dihydro-1,6-naphthyridin-7-yl)pyrrolidin-1-yl)piperidin-1-yl)-N-methylpicolinamide] | +++ (+++ indicate a value of at least 100) | +++ (+++ indicate a value of at least 100) |
| 10 to 100 nM | < 10 nM | 100 to 1000 nM | – | < 10 nM | < 10 nM | – | – | – | – | CNC(=O)c1ccc(N2CCC(N3CCC(c4cc5ccc(F)cc5c(=O)[nH]4)C3)CC2)cn1 (single isomer, unassigned) [Compound 154b, 5-(4-(3-(7-fluoro-1-oxo-1,2-dihydroisoquinolin-3-yl)pyrrolidin-1-yl)piperidin-1-yl)-N-methylpicolinamide] | +++ (+++ indicate a value of at least 100) | + (+ indicates a value of 10 to less than 50) |
| – | < 10 nM | 1000 to 10000 nM | – | – | – | 100 to 1000 nM | – | < 10 nM | < 10 nM | CNC(=O)c1ccc(N2CCC(N3CC4(c5nc6ccc(F)cc6c(=O)[nH]5)CC3C4)CC2)c(F)n1 [Compound 259, 6-fluoro-5-(4-(4-(6-fluoro-4-oxo-3,4-dihydroquinazolin-2-yl)-2-azabicyclo[2.1.1]hexan-2-yl)piperidin-1-yl)-N-methylpicolinamide] | +++ (+++ indicate a value of at least 100) | +++ (+++ indicate a value of at least 100) |
| < 10 nM | < 10 nM | 10 to 100 nM | – | < 10 nM | < 10 nM | – | – | – | – | CNC(=O)c1ccc(N2CCC(N3CCC(c4nc5c(c(C(F)(F)F)cn5C)c(=O)[nH]4)C3)CC2)cn1 (racemic) [Compound 170rac] | + (+ indicates a value of 10 to less than 50) | − (− indicates a value of less than 10) |
| – | – | 100 to 1000 nM | – | – | – | – | < 10 nM | < 10 nM | – | CNC(=O)c1ccc(N2CCC(N3CCC(c4cc5c(c(=O)[nH]4)CCCC5)C3)CC2)c(F)n1 (single isomer, unassigned) [Compound 337b, 6-fluoro-N-methyl-5-(4-(3-(1-oxo-1,2,5,6,7,8-hexahydroisoquinolin-3-yl)pyrrolidin-1-yl)piperidin-1-yl)picolinamide] | – | +++ (+++ indicate a value of at least 100) |
| 1000 to 10000 nM | – | – | – | 10 to 100 nM | 10 to 100 nM | – | – | – | – | CNC(=O)c1ccc(N2CCC(CN3CCCC(c4nc5ccccc5c(=O)[nH]4)C3)CC2)cn1 (single isomer, unassigned) [Compound 9a] | – | +++ (+++ indicate a value of at least 100) |
| 100 to 1000 nM | – | – | – | < 10 nM | < 10 nM | – | – | – | – | CCc1ccc(C2CCN(C3CCN(c4cnc(C(=O)NC)cc4C)CC3)C2)[nH]c1=O (single isomer, unassigned) [Compound 217b] | – | ++ (++ indicates a value of 50 to less than 100) |
| > 10000 nM | – | – | 100 to 1000 nM | 1000 to 10000 nM | – | – | – | – | – | CNC(=O)c1ccc(N2CCC(C(=O)N3CCC(c4ncc(C(F)(F)F)c(=O)[nH]4)CC3)CC2)cn1 [Compound 59] | – | − (− indicates a value of less than 10) |
| 1000 to 10000 nM | – | – | – | < 10 nM | < 10 nM | – | – | – | – | N#Cc1ccc(N2CCC(N3CCC(c4nc5ccccc5c(=O)[nH]4)C3)CC2)cc1 (single isomer, unassigned) [Compound 34b] | – | +++ (+++ indicate a value of at least 100) |
